In patent US20160199406A1, “NON-[…] IN COMBINATION WITH LIQUID […] FOR ORGAN PROTECTION” (priority 2013, published 2016):

Columns and labels:
[1] = normobaric conditions, cited from earlier work
[2] = test system: injured retinal ganglion cells; experiment: Annexin V-PeCy7 flow cytometric evaluation of early apoptosis in injured retinal ganglion cells after unilateral optic nerve axotomy; format: in vivo, B6.Cg-Tg(Thy1-YFP)16Jrs/J mice
Text: B6.Cg-Tg(Thy1-YFP)16Jrs/J mice: Thy1-YFP mice were exposed to a vapor anesthetic agent (Isofluorane or Sevofluorane), in an anesthetic induction chamber. Animals were temperature probed, sterile eye lubricant was applied to prevent corneal damage, and an incision was made adjacent to the orbital ridge. The left orbit was exposed, and the lacrimal gland gently resected and covered with saline soaked gauze. […] Using microscissors, the dura was resected, and the optic nerve was transected approximately 0.5 mm from the posterior aspect of the eye bulb. Preservation of blood supply was evaluated through the dissecting microscope focused through a dilated pupil and a coverslip. The skin was closed with suture clips, analgesics (buprenorphine in saline) administered, and the mouse was transferred to an Argon (70%)/Oxygen (30%) perfused air chamber on a warming mat. […] Control mice were exposed to normal atmospheric conditions post-injury (See FIG. 1). Internal surgical controls were the uninjured retina of the contralateral eye.
Retinal Dissection, dissociation, and staining of cells: Mice were lightly anesthetized with Isofluorane and killed via cervical dislocation. Eyes were rapidly removed and placed in ice cold Hank's Balanced Salt Solution (HBSS). A single puncture to the conjunctiva was made, and corneas removed by microdissection. The ciliary epithelium and lens were then resected, and vitreous humor was visualized using triamcinolone acetonide solution to aid in removal by aspiration and microdissection. Free floating retinas were then transferred to fresh HBSS on ice, then transferred to 1 ml of enzyme solution containing Trypsin (MACS—Miltenyi Biotec). Following a 15 minute incubation at 37 degrees C. with periodic agitation, retinas were dissociated with fire polished pipettes and centrifuged. Pellets were washed in Annexin V binding buffer, and centrifuged. Pellets were the re-dissociated in DNAse-containing binding buffer, and stained for Annexin V-PeCy7 probe. Cells were washed, cell strained (40 um), and analyzed using a BD FacsAria III flow cytometer.
Flow cytometry and data analysis: Compensation and gating was established using unstained, YFP-only, Annexin V-only, and double-labeled cell samples. Dead cell assays (not shown) were also performed using propidium iodide and 7-AAD DNA intercalating dyes. Forward and side scatter gating were used to exclude debris, and YFP-positive cells were gated and used as the reference population. Quadrant analysis was used to identify and quantify Annexin V labeling within YFP expressing cells across groups. A within-subjects comparison was performed by comparing injured and uninjured retinas from the same animal. Difference scores (uninjured—injured Annexin V cell counts) were produced in order to normalize Annexin V background labeling in right eyes. All data are represented as means +/−1.0 standard error of the mean.

| Structure (SMILES) | concentration with capacity to provide anesthesia [1] | anesthetic effects ([1]; high inspiratory concentrations) | difference score (uninjured - injured Annexin V cell counts within YFP-positive population) ([2]; 24 h post-injury, Argon (70%)/Oxygen (30%) chamber after surgery under Isofluorane or Sevofluorane, buprenorphine) | Annexin V binding in injured retinas ([2]; 48 h post-injury, Argon (70%)/Oxygen (30%) chamber post-injury) | neuroprotection ([2]; 72 hours post-injury) | neuroprotective effect in combination with liquid anesthetics ([2]; overall conclusion from the data) | time of peak of neuroprotection effect size ([2]; post-injury, Argon (70%)/Oxygen (30%)) |
| --- | --- | --- | --- | --- | --- | --- | --- |
| [Xe] [Xenon, xenon, reference compound] | 71% | – | – | – | – | – | – |
| [Ar] [argon] | – | does not provide anesthetic effects | positive difference score | strong resistance to Annexin V binding | retained at 72 hours | provides a neuroprotective effect within the central nervous system | around 48 h |
